Reference: US6960614B2, “Oxygenated esters of 4-lodo phenylamino benzhydroxamic acids” (Warner-Lambert Company, priority 2000, dated 2005)
Counter-ions that a name gives are not always drawn.

Test system: MEK
Experiment: Cellular Assay for Measuring MEK Inhibition (inhibition of ERK phosphorylation in C26 cells, Western blot)
Assay type: cell-based, murine
Conditions: for IC50: inhibition of ERK phosphorylation in murine colon 26 (C26) carcinoma cells, determined graphically from dose response curve
Description: The evaluation of the compounds as MEK inhibitors was performed in an assay that measures their ability to inhibit phosphorylation of MAP kinase […]) in murine colon 26 (C26) carcinoma cells. Since ERK1 and ERK2 represent the only known substrates for MEK, measurement of inhibition of ERK phosphorylation in cells provides direct readout of cellular MEK inhibition by the compounds of the invention. Briefly, the assay involves treating exponentially growing C26 cells with varying concentrations of the test compound (or vehicle control) for […] at 37° C. Cells are then rinsed free of compound/vehicle and lysed in a solution containing 70 mM NaCl, 50 mM glycerol phosphate, 10 mM HEPES, pH 7.4, 1% Triton X-100, 1 mM Na3VO4, 100 μM PMSF, 10 μM leupeptin and 10 μM pepstatin. Supernatants are then subjected to gel electrophoresis and Western blotting using a primary antibody recognizing dually phosphorylated ERK1 and ERK2. To evaluate total MAPK levels, blots were subsequently ‘stripped’ and re-probed with a 1:1 mixture of polyclonal antibodies recognizing unphosphorylated ERK1 and ERK2.

[1] = ERK phosphorylation in C26 cells

SMILES | IC50 [nM] | % Inhibition @ 0.1 μM [1] [%] | % Inhibition @ 1 μM [1] [%] | % Inhibition @ 10 μM (10 μM, ERK phosphorylation in C26 cells) [%]
CN(OCCO)C(=O)c1ccc(F)cc1Nc1ccc(I)cc1Cl [Example 81, 2-(2-Chloro-4-iodo-phenylamino)-4-fluoro-N-(2-hydroxy-ethoxy)-N-methyl-benzamide] | 134 |  |  | 
O=C(NOCC1CC1CO)c1cc(F)c(F)cc1Nc1ccc(I)cc1F (stereo not drawn) [Example 217, 4,5-Difluoro-2-(2-fluoro-4-iodo-phenylamino)-N-(2-hydroxymethyl-cyclopropylmethoxy)-benzamide] |  | 26.9 | 93.1 | 
O=C(NOCC1(CO)CC1)c1cc(F)c(F)cc1Nc1ccc(I)cc1F [Example 221, 4,5-Difluoro-2-(2-fluoro-4-iodo-phenylamino)-N-(1-hydroxymethyl-cyclopropylmethoxy)-benzamide] |  | 46 | 92.4 | 
CNCCONC(=O)c1ccc(F)c(F)c1Nc1ccc(I)cc1F [Example 79, 3,4-Difluoro-2-(2-fluoro-4-iodo-phenylamino)-N-(2-methylamino-ethoxy)-benzamide, hydrochloride salt] | 20 |  |  | 
Cc1cc(I)ccc1Nc1c(C(=O)NOCCNc2ccccc2)cc(F)c(F)c1F [Example 230, 3,4,5-Trifluoro-2-(4-iodo-2-methyl-phenylamino)-N-(2-phenylamino-ethoxy)-benzamide] | 51 |  |  | 
CCC(O)CONC(=O)c1cc(Br)c(F)c(F)c1Nc1ccc(I)cc1Cl (stereo not drawn) [Example 107, 5-Bromo-2-(2-chloro-4-iodo-phenylamino)-3,4-difluoro-N-(2-hydroxy-butoxy)-benzamide] | 76 |  |  | 
Cc1cc(I)ccc1Nc1c(C(=O)NOC(C)CO)cc(Br)c(F)c1F (stereo not drawn) [Example 124, 5-Bromo-3,4-difluoro-N-(2-hydroxy-1-methyl-ethoxy)-2-(4-iodo-2-methyl-phenylamino)-benzamide] |  | 78 | 96.9 | 
CC(C)(CO)CONC(=O)c1cc(F)c(F)c(F)c1Nc1ccc(I)cc1Cl [Example 198, 2-(2-Chloro-4-iodo-phenylamino)-3,4,5-trifluoro-N-(3-hydroxy-2,2-dimethyl-propoxy)-benzamide] |  | 0 | 43.5 | 
O=C(NOCCCO)c1ccc(F)c(F)c1Nc1ccc(I)cc1Cl [Example 99, 2-(2-Chloro-4-iodo-phenylamino)-3,4-difluoro-N-(3-hydroxy-propoxy)-benzamide] | 18 |  |  | 
O=C(NOCC(O)C(F)(F)F)c1ccc(F)c(F)c1Nc1ccc(F)cc1F (stereo not drawn) [Example 212, 2-(2,4-Difluoro-phenylamino)-3,4-difluoro-N-(3,3,3-trifluoro-2-hydroxy-propoxy)-benzamide] |  |  | 20.1 | 85.1
CCC(O)CONC(=O)c1ccc(F)c(F)c1Nc1ccc(I)cc1F (stereo not drawn) [Example 112, 3,4-Difluoro-2-(2-fluoro-4-iodo-phenylamino)-N-(2-hydroxy-butoxy)-benzamide] |  | 95.2 | 95.5 | 
Cc1cc(I)ccc1Nc1c(C(=O)NOCC(O)COc2ccccc2)cc(Br)c(F)c1F (stereo not drawn) [Example 187, 5-Bromo-3,4-difluoro-N-(2-hydroxy-3-phenoxy-propoxy)-2-(4-iodo-2-methyl-phenylamino)-benzamide] |  | 13.8 | 83.3 | 
O=C(NOCC(O)CN1CCOCC1)c1ccc(F)c(F)c1Nc1ccc(I)cc1Cl (stereo not drawn) [Example 143, 2-(2-Chloro-4-iodo-phenylamino)-3,4-difluoro-N-(2-hydroxy-3-morpholin-4-yl-propoxy)-benzamide] | 600 |  |  | 
CCC(O)CONC(=O)c1cc(Br)c(F)c(F)c1Nc1ccc(I)cc1F (stereo not drawn) [Example 113, 5-Bromo-3,4-difluoro-2-(2-fluoro-4-iodo-phenylamino)-N-(2-hydroxy-butoxy)-benzamide] |  | 89.9 | 94.6 | 
Cc1cc(I)ccc1Nc1c(C(=O)NOCC(O)CO)cc(Br)c(F)c1F (stereo not drawn) [Example 91, 5-Bromo-N-(2,3-dihydroxy-propoxy)-3,4-difluoro-2-(4-iodo-2-methyl-phenylamino)-benzamide] |  | 89.4 | 98.9 | 
